In patent publication US11020422B2, “Cyclodextrin for the treatment of lysosomal storage diseases” (The United States of America, as represented by the …, priority 2012, dated 2021):
pIC50: −log10 of the molar value. Like-named read-outs stand apart in the source and are kept apart here.

Key:
Wolman fibroblasts [1] = test: Amplex-Red cholesterol assay in Wolman fibroblasts; format: cell-based, human; conditions: Wolman fibroblasts
Experimental: (§1) Amplex-Red Cholesterol Assay—Total cholesterol in patient cells was measured by the Amplex-Red Cholesterol Assay Kit (Invitrogen). The unesterified cholesterol was determined using the same kit without the enzyme […]. Esterified cholesterol was determined as the difference between the total and unesterified cholesterol values. The cells were seeded to black, tissue culture-treated 96-well, 384-well or 1536-well plates at 4000, 1000, 300 cells/well in 100, 20 or 5 μl medium by a Multidrop Combi dispenser (Thermo Scientific, Waltham, Mass.) and cultured for 24 hr. The assay plates were added with compound dilution in DMSO solution using a Pintool station (Klaypsys, San Diego, Calif.) and cultured for 3 days. The cells were washed twice manually for 96-well or 384-well plates or using a centrifugation method in which the inverted plates were placed on a stack of paper towel and centrifuged at 800 rpm for 1 min followed by addition of 7 μl/well PBS (added gently with a 45 degree angled liquid dispenser (Klaypsys). The cholesterol assay mixture from the kit was added at 100, 20 or 2.5 μl/well for 96-well, 384-well or 1536-well plates and incubated for 1 hr at 37° C. The resulted fluorescence intensity was measured with excitation of 560 (±10) and emission of 590 (±10) in a fluorescence plate reader (Tecan, Durham, N.C.).

[2] = tested on: fibroblasts derived from patients with lysosomal storage diseases; test: LysoTracker dye staining of enlarged lysosomes; format: cell-based, human
Experimental: On the experimental day, cells were live-stained with 100 μl/well 50 nM LysoTracker-Red DND-99 dye (Invitrogen, #L-7528) in medium at 37° C. for 1 hr followed by plate washing twice with PBS. The plate was then fixed in 100 μl/well 3.2% formaldehyde for 1 hr and washed for two times with PBS. […] After washing twice with PBS, the plates were stored at 4° C. until imaging analysis. DAPI filter set and TRITC filter set in the Incell2000 imaging plate reader were used to visualize Hoechst nuclear staining and LysoTracker staining, respectively.
FIG. 5. […] To test this hypothesis we measured the ability of delta-T to decrease acidic/lysosomal compartment size as determined by LysoTracker staining in fibroblasts derived from patients with six other diseases. Lysosomal storage occurs in these fibroblasts consists of ceroid/lipofuscin in Batten (CLN2), globotriaosylceramide in Fabry, ceramide in Farber, sphingomyelin in NPA, partially degraded heparan sulfate in Sanfilippo type B, and GM2 ganglioside in Tay-Sachs (Table S1).
The effect of various cyclodextrins, δ-tocopherol, and combinations of cyclodextrins and δ-tocopherol on lipid accumulation and lysosome size in wild-type and lysosomal storage disease fibroblasts (Wolman, Tay-Sach, Fabry, Farber, and MPSIIIB fibroblasts) was determined using Lysotracker assay. In brief, cells were treated with various combinations and concentrations of drugs followed by staining with the Lyso tracker dye which is a basophilic fluorescent probe that accumulates in acidic compartments, i.e. lysosomes, within the cell.

NPC cells = conditions: NPC / NPC1 cells; reported; cited from earlier work
[3] = tested on: NPC1, Wolman and other lysosome storage disorder fibroblasts; test: Electron microscopy of lysosomal ultrastructure
Experimental: Electron Microscopy—Fibroblast cells were seeded in 6-well plates at 150,000 cells/well in 5 ml medium and cultured for 1 day in the presence or absence of compounds. Cells were fixed in 2% glutaraldehyde, 0.1 M cacodylate buffer, pH 7.2 for 1 hr at room temperature and then stored at 4° C. until TEM analysis was performed. The cells were post fixed in 1% osmium tetroxide in the same buffer for 1 hour and en bloc stained with 0.5% uranyl acetate in 0.1 M acetate buffer, pH 4.2. The cells were then dehydrated in graded ethanol solutions (35%, 50%, 70%, 95% and 100%) and infiltrated overnight in epoxy resin (Poly/Bed 812, Polysciences). After adding fresh pure resin the cell plates were cured for 72 h in 55° C. After removing the polystyrene plates, suitable areas for thin sectioning were selected, cut out with a jewelry saw and glued onto empty resin stubs. About 70 nm thin sections were cut on an ultramicrotome (Leica EM UC6) and mounted on naked copper grids. The thin sections were double stained (uranyl acetate and lead citrate), examined in a Hitachi H-7650 transmission electron microscope, and images were taken using an AMT CCD camera.
The effects of δ-tocopherol and methyl-β-cyclodextrin on the ultrastructural pathology of lysosomes in lysosome storage disorder cells were investigated by electron microscopy. In brief, following treatment of wild-type and lysosome storage disorder fibroblasts with δ-tocopherol, methyl-β-cyclodextrin, or δ-tocopherol and methyl-β-cyclodextrin, the fibroblasts were fixed and embedded. Thin sections of the embedded cells were then prepared and the ultrastructural pathology was examined by electron microscopy. […] The effects of δ-tocopherol and/or methyl-β-cyclodextrin on the ultrastructural pathology of other lysosome disorder fibroblasts-Farber (FIGS. 7,8 and 10); Tay-Sachs (FIG. 8); Fabry (FIG. 8); Wolman (FIG. 9); NPA (FIG. 9); Batten (FIG. 9); MSIIB (FIG. 9)—were analyzed by electron microscopy.

NPC1 skin fibroblasts = test: Cholesterol accumulation (Amplex-red, filipin) and enlarged lysosomes (Lysotracker) in NPC1 skin fibroblasts; format: cell-based, human; conditions: NPC1 skin fibroblasts; concentration dependent
Experimental: as §1

NPC1-NSCs = test: Amplex-red cholesterol assay in NPC1 neural stem cells; format: cell-based, human
Experimental: as §1
Induced pluripotent stem cells (IPSCs) from the NPC1 skin fibroblasts were generated and differentiated into neural stem cells (NPC1-NSCs).

Wolman fibroblasts [4] = test: Nile Red staining of neutral lipids in Wolman fibroblasts; conditions: cultured with compound for 3 days
Experimental: Nile-red Staining—The cells were cultured and treated as described above in 96-well plates. On the experimental day, cells were washed two times with PBS and live-stained with 1 μM Nile-red dye solution (prepared in cell culture medium) at 100 μl/well followed by an incubation at 37° C. for 10 min. After washed twice with PBS, the cells were fixed in 3.2% paraformaldehyde in PBS at 100 μl/well 1 μg/ml Hoechst 33342 (Invitrogen) in PBS and incubation at RT for 30 min. The plate was washed twice with PBS and the images were measured in Incell2000 imaging plate reader with a FTTC filter set (Ex=480±20 nm and Ex=525±36 nm) for the neutral lipids (cholesteryl esters and triglycerides) and a DAPI filter set for Hoechst nuclear staining.
(Nile Red) Cells were cultured in the presence of delta tocopherol, alpha tocopherol and MBCD plus in combination for 3 days and then stained for neutral lipid with Nile red.
Wolman fibroblasts were treated with δ-tocopherol, α-tocopherol, methyl-β-cyclodextrin, or combinations of δ-tocopherol and methyl-β-cyclodextrin or α-tocopherol and methyl-β-cyclodextrin. […] To further characterize the effect of treatment on lipid accumulation, treated fibroblasts were evaluated using a Nile Red assay to measure neutral lipid accumulation. […] The Nile Red staining was visualized by fluorescent microscopy.

Wolman fibroblasts [5] = test: β-Hexosaminidase (HEXB) release, lysosomal exocytosis; format: cell-based, human; conditions: 40 μM, 24 hours, compared with vehicle treated cells
Experimental: Measurement of β-Hexosaminidase (HEXB) Release—Fibroblasts were cultured in 24-well plates at 30,000 cells/well in 0.4 ml medium for one day at 37° C. After being washed twice with the assay buffer (DMEM with 2 mM D-mannose 6-phosphate sodium salt), the cells with 0.4 ml/well the assay buffer were incubated at 37° with 0.2 ml/well compound in assay buffer. […] The rest of assay buffer in the 24-well plate was discarded followed by addition of 0.6 ml 1% Triton-X100 in dH2O to lyse the cells. After incubation at 37° C. for 30 min. 6 μl/well cell lysate were added to the 96-well plate with 24 μl assay buffer followed by 90 μl/well 2.25 mM HEXB substrate, 4-Methylumbelliferyl N-acetyl-β-D-glucosaminide (Sigma-Aldrich, #M2133), in a 25 mM citric acid buffer at pH 4.5. The 96-well plate was then measured in the Tecan fluorescence plate reader (Ex=365±20 nm and Em=460±20 nm) after 1 hr incubation at 37° C. and addition of 100 μl/well stop solution (1 M glycine and 1 M NaOH at pH 10.5).
FIG. 3. […] We measured lysosomal exocytosis in delta-T-treated Wolman fibroblasts by determining the activity of beta-hexosaminidase (HEXB), a lysosomal enzyme, in the extracellular medium.
In brief, the level of lysosomal exocytosis was determined by measuring the level of the lysosomal enzyme HEXB secreted into the culture medium following treatment with drug.

NPC1 fibroblasts = test: Lysosomal Ca2+ released by GPN in NPC1 fibroblasts; format: cell-based, human; conditions: 40 μM, 24 hours
Source text: (§2) FIG. 4. (calcium assay) Delta-T increases intracellular Ca^2+ concentration and ameliorates lysosomal calcium deficiency in NPC1 cells—Increase in the concentration of intracellular Ca^2+, an important second messenger, triggers a variety of cellular responses including lysosomal exocytosis. In NPC1 fibroblasts there is a dysregulation of calcium homeostasis, as evidenced by lysosomal Ca^2+ deficiency. […] Consistent with an earlier report, lysosomal Ca^2+ was reduced in NPC1 cells compared with that in control cells.

[6] = tested on: NPC1 and Wolman fibroblasts, control fibroblasts; test: Intracellular cytosolic Ca2+ measurement (Fluo-8); format: cell-based, human
Source text: as §2

- pIC50 (NPC1-NSCs; NPC1-NSCs, FIG. 12A, read-out: IC50, Amplex-red cholesterol assay): 4.74
- pIC50 (NPC1-NSCs; human NPC1 neural stem cells, values given under dosage recommendations, read-out: IC50 on reduction of cholesterol accumulation, Amplex-red cholesterol assay): 4.82
- HEXB activity in culture medium (Wolman fibroblasts [5]): increased
Structure (SMILES): Cc1cc(O)cc2c1O[C@](C)(CCC[C@H](C)CCC[C@H](C)CCCC(C)C)CC2 [delta-tocopherol]
- reduction in total cholesterol (Wolman fibroblasts [1]; FIGS. 1A-1C): significant reduction
- reduction in free cholesterol (Wolman fibroblasts [1]; FIGS. 1D-1F): significant reduction
- LysoTracker staining ([2]; 40 μM, six fibroblast lines: Batten (CLN2), Fabry, Farber, NPA, Sanfilippo type B, Tay-Sachs): significantly reduced the LysoTracker staining
- LysoTracker staining ([2]; NPC1 and Wolman fibroblasts, 40 μM delta-T or 300 μM MBCD): significantly reduced LysoTracker staining
- lipid accumulation and lysosome size (Lysotracker) ([2]; Wolman, Tay-Sach, Fabry, Farber, MPSIIIB fibroblasts, FIGS. 5A-5D): reduced lipid accumulation and lysosome size
- cholesterol efflux, accumulation or storage (NPC cells): increased the cholesterol efflux from NPC cells and reduced cholesterol accumulation
- characteristic storage materials in lysosomes (electron microscopy) ([3]; 40 μM, NPC1 and Wolman cells): significantly reduced the characteristic storage materials
- abnormal lysosomal structures (electron microscopy) ([3]; Wolman fibroblasts, FIG. 6): significantly reduced
- unesterified cholesterol accumulation (Amplex Red) (NPC1 skin fibroblasts): dramatically reduces cellular cholesterol accumulation
- potency in NPC1 neuronal cells compared to NPC1 skin fibroblasts (NPC1-NSCs): weaker
- cholesterol accumulation, combination therapy experiment (NPC1-NSCs; 50 μM HBPCD, 10 μM delta-tocopherol, alone or combined, compared with 5 mM HBPCD): did not show the significant cholesterol reduction effect
- neutral lipid accumulation (Nile red) (Wolman fibroblasts [4]; FIG. 2): reduces accumulation of neutral lipids
- neutral lipid accumulation (Nile red) (Wolman fibroblasts [4]; FIG. 2, listed as δ-tocopherol): significantly reduced
- lysosomal Ca2+ released by GPN (NPC1 fibroblasts): significantly increased lysosomal Ca^2+
- cytosolic Ca2+ [6]: stimulated a transient increase of cytosolic Ca^2+
